{"source": "paper PMC6750704", "about": "(Journal of medicinal chemistry, 2019)", "system": "paradoxical MEK/ERK pathway activation in NRAS Q61K Sbcl2 melanoma cells", "test": "Vemurafenib induced paradoxical MEK/ERK activation, Western blotting", "type": "cell-based, human", "conditions": "1 μM, control peptide treated Sbcl2 cells"}
{"compound": "CCCS(=O)(=O)Nc1ccc(F)c(C(=O)c2c[nH]c3ncc(-c4ccc(Cl)cc4)cc23)c1F", "note": "[vemurafenib]", "values": [{"measurement": "effect on pMEK and pERK levels", "value": "induces paradoxical MEK/ERK pathway activation"}]}
